Holding throughout (assay): Enzymatic activity of PI3K isoforms, TR-FRET assay (PIP3 formation)
What all share (format): biochemical

One assay has as its target PI3Kα (Homo sapiens (Human), UniProt P42336). A digest of the protocol:
(§1)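 After 30 min at 25° C, reactions were quenched with 10 mM EDTA plus 10 nM labeled-PIP3 and 35 nM Europium-GRP-1, and TR-FRET was read (Ex 340, Em 615/665 nm). Enzymes were purified recombinant heterodimers; product PIP3 competes off the labeled tracer. Values given as IC50, nM.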

A further assay deals with PI3Kδ (Homo sapiens (Human), UniProt O00329). The conditions noted are these: bound given in nM. A digest of the protocol: as §1
Chain of PI3Kδ (O00329 whole entry, the tested form may be a part): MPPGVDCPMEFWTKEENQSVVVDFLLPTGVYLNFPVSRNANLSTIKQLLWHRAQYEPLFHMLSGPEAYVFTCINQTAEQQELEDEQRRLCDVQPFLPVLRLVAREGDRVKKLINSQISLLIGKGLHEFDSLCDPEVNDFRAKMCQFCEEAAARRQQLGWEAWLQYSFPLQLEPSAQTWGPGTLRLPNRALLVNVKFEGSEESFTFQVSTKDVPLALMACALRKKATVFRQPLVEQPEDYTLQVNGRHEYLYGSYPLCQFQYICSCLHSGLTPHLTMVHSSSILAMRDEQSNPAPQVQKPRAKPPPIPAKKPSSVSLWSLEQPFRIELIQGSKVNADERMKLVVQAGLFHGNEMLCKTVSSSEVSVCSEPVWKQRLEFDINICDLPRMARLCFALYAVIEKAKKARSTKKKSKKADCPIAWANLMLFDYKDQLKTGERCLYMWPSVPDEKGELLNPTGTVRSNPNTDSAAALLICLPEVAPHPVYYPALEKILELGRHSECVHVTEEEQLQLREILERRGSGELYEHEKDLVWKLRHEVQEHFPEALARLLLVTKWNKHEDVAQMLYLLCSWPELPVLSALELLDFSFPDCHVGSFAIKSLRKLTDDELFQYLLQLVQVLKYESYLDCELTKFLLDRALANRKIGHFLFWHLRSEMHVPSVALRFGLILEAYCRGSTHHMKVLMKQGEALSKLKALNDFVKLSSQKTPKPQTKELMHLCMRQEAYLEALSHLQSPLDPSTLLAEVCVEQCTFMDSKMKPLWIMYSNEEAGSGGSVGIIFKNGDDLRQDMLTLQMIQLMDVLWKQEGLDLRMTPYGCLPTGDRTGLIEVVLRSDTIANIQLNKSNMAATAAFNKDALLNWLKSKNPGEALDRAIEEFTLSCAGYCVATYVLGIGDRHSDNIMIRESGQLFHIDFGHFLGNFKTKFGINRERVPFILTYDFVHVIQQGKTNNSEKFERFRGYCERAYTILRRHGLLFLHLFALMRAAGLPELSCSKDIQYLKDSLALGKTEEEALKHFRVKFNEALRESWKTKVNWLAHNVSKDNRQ
Chain of PI3Kδ (P27986 whole entry partner, the tested form may be a part): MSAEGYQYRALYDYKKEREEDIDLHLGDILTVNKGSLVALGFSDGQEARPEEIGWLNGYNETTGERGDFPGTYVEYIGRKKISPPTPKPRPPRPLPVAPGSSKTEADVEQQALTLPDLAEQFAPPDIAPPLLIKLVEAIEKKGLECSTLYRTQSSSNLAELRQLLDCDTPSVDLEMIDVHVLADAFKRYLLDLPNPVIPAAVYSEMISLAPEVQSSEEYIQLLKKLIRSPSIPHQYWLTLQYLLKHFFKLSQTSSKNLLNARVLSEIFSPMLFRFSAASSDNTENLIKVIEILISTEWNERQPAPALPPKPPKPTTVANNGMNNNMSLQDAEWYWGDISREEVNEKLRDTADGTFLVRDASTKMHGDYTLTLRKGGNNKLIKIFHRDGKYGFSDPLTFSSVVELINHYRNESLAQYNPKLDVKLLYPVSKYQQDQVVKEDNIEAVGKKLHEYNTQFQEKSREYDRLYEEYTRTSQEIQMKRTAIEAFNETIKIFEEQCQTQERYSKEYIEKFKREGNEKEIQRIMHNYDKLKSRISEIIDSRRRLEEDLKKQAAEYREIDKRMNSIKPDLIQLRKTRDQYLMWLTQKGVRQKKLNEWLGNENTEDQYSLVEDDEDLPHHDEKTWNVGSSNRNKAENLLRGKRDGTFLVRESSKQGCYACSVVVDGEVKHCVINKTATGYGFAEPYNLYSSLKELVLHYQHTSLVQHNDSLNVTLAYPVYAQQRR
The target of the next assay is PI3Kβ (Homo sapiens (Human), UniProt P42338). A digest of the protocol: (§2)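 IC50 (nM) reflects inhibition of PIP3 formation by purified recombinant heterodimeric PI3K, measured as loss of TR-FRET signal. The read-out comes from competition between enzyme-made PIP3 and labelled PIP3 for binding to the GRP-1 pleckstrin homology domain.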
Chain of PI3Kβ (P42338 whole entry, the tested form may be a part): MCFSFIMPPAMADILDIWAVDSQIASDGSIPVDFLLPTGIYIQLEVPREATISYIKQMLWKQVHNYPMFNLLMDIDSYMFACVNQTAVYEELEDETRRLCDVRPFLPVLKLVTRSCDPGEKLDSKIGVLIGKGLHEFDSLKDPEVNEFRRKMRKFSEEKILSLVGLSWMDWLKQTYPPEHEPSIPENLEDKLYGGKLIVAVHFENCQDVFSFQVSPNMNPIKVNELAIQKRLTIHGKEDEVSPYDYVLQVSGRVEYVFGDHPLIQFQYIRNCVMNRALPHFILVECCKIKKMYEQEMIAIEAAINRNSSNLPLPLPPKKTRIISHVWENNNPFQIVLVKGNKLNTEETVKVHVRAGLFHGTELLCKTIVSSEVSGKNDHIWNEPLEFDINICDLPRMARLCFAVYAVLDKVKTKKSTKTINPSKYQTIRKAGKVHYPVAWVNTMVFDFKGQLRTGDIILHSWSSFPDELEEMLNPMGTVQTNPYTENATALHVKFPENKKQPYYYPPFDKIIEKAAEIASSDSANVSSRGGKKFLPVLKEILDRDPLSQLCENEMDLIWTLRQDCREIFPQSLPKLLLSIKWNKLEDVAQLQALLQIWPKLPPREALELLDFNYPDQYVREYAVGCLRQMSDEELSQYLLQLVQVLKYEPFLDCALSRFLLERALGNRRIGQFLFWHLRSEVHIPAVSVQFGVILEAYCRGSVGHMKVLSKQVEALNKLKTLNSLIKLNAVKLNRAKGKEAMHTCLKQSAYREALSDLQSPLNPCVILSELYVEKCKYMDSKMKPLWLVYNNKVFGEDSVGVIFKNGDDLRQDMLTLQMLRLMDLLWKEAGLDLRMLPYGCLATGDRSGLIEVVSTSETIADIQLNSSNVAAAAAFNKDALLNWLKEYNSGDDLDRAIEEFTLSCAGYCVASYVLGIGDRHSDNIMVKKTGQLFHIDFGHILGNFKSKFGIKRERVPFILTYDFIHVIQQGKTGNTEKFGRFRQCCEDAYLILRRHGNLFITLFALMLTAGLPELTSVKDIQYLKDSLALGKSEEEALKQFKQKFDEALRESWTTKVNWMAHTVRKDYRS
Chain of PI3Kβ (P27986 whole entry partner, the tested form may be a part): as the sequence (P27986 whole entry partner, the tested form may be a part) above
In the next assay the target is PI3Kγ (Homo sapiens (Human), UniProt P48736). A digest of the protocol: as §2

Chain of PI3Kα (P42336 whole entry): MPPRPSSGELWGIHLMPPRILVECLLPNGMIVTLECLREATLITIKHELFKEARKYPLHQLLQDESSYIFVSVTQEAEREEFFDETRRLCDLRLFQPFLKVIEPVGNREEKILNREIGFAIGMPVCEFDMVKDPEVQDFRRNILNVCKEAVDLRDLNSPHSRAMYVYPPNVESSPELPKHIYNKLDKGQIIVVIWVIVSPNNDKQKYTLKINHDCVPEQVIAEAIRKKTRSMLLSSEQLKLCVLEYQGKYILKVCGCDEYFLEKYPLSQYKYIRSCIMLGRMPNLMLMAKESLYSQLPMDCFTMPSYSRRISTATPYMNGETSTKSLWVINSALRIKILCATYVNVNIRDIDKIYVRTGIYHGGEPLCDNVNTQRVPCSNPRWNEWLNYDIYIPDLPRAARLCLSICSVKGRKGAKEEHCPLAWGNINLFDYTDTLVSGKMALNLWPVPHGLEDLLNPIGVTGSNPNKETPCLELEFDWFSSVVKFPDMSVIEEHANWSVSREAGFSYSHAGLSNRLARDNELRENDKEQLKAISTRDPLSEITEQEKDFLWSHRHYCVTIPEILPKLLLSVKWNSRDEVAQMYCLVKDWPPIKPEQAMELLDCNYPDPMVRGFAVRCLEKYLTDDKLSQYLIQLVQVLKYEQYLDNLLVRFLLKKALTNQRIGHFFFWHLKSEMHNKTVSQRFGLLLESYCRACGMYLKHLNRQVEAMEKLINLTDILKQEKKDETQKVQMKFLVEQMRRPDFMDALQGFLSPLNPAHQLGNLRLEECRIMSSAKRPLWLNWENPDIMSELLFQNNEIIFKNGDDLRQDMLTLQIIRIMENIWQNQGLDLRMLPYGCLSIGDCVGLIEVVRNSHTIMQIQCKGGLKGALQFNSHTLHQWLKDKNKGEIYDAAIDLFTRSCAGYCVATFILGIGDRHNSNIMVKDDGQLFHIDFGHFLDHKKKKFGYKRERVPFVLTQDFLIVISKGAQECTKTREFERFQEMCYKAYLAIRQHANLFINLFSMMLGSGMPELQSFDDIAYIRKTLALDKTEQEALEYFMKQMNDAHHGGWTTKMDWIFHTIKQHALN
Chain of PI3Kα (P27986 whole entry partner): as the sequence (P27986 whole entry partner, the tested form may be a part) above

For the compound `C[C@H](Nc1ncnc(N)c1C#C[C@@H](C)O)c1nc2cccc(Cl)c2c(=O)n1-c1cc(F)cc(F)c1` [Compound 20a, 2-((S)-1-(6-amino-5-((R)-3-hydroxybut-1-ynyl)pyrimidin-4-ylamino)ethyl)-5-chloro-3-(3,5-difluorophenyl)quinazolin-4(3H)-one], the IC50 was over 1 µM against PI3Kα (bound given in uM), under 100 nM against PI3Kδ, over 1 µM against PI3Kβ (bound given in uM) and over 1 µM on PI3Kγ (bound given in uM).
For `C[C@H](Nc1ncnc(N)c1C#Cc1ccc(C(=O)O)cn1)c1nc2cccc(Cl)c2c(=O)n1-c1ccccc1` [Compound 138a, (S)-6-((4-amino-6-((1-(5-chloro-4-oxo-3-phenyl-3,4-dihydroquinazolin-2-yl)ethyl)amino)pyrimidin-5-yl)ethynyl)nicotinic acid], the IC50 was over 1 µM against PI3Kα (bound given in uM), under 100 nM against PI3Kδ, over 1 µM on PI3Kβ (bound given in uM) and over 1 µM against PI3Kγ (bound given in uM).
For the compound `C[C@H](Nc1ncnc(N)c1C#Cc1ccc(F)cn1)c1nc2cccc(C(F)F)c2c(=O)n1-c1cccc(C#N)c1` [Compound 70a, (S)-3-(2-(1-((6-amino-5-((5-fluoropyridin-2-yl)ethynyl)pyrimidin-4-yl)amino)ethyl)-5-(difluoromethyl)-4-oxoquinazolin-3(4H)-yl)benzonitrile], the 50% inhibitory concentration (IC50) was over 1 µM on PI3Kα (bound given in uM), under 100 nM on PI3Kδ, over 1 µM on PI3Kβ (bound given in uM) and over 1 µM against PI3Kγ (bound given in uM).
Turning to `C[C@H](Nc1ncnc(N)c1C#Cc1ccc(C(F)(F)F)cn1)c1nc2cccc(Cl)c2c(=O)n1-c1ccccc1` [Compound 132a, (S)-2-(1-((6-amino-5-((5-(trifluoromethyl)pyridin-2-yl)ethynyl)pyrimidin-4-yl)amino)ethyl)-5-chloro-3-phenylquinazolin-4(3H)-one], the IC50 on PI3Kα (bound given in uM) was over 1 µM; against PI3Kδ, under 100 nM; on PI3Kβ (bound given in uM), over 1 µM; against PI3Kγ (bound given in nM), under 0.1 µM.
Turning to `C[C@H](Nc1ncnc(N)c1C#CC1CC1)c1nc2cccc(Cl)c2c(=O)n1-c1cc(F)cc(F)c1` [Compound 23a, (S)-2-(1-(6-amino-5-(cyclopropylethynyl)pyrimidin-4-ylamino)ethyl)-5-chloro-3-(3,5-difluorophenyl)quinazolin-4(3H)-one], the 50% inhibitory concentration (IC50) was over 1 µM on PI3Kα (bound given in uM), under 100 nM at PI3Kδ, over 1 µM against PI3Kβ (bound given in uM) and over 1 µM at PI3Kγ (bound given in uM).
With `C[C@H](Nc1ncnc(N)c1C#Cc1ccc(F)cn1)c1nc2cccc(C(F)(F)F)c2c(=O)n1-c1ccccc1` [Compound 68a, (S)-2-(1-((6-amino-5-((5-fluoropyridin-2-yl)ethynyl)pyrimidin-4-yl)amino)ethyl)-3-phenyl-5-(trifluoromethyl)quinazolin-4(3H)-one], the IC50 against PI3Kα (bound given in uM) was over 1 µM; against PI3Kδ it was under 100 nM; against PI3Kβ (bound given in uM), over 1 µM; against PI3Kγ (bound given in uM), over 1 µM.
Turning to `C[C@H](Nc1ncnc(N)c1C#Cc1ccc(F)cn1)c1nc2cccc(Cl)c2c(=O)n1-c1cccc(CNS(C)(=O)=O)c1` [Compound 130a, (S)—N-(3-(2-(1-((6-amino-5-((5-fluoropyridin-2-yl)ethynyl)pyrimidin-4-yl)amino)ethyl)-5-chloro-4-oxoquinazolin-3(4H)-yl)benzyl)methanesulfonamide], the IC50 on PI3Kα (bound given in uM) was over 1 µM; against PI3Kδ it was under 100 nM; against PI3Kβ (bound given in uM), over 1 µM; on PI3Kγ (bound given in uM), over 1 µM.
For `C[C@H](Nc1ncnc(N)c1C#Cc1cc(C(F)F)ccn1)c1nc2cccc(Cl)c2c(=O)n1-c1ccccc1` [Compound 149a, (S)-2-(1-((6-amino-5-((4-(difluoromethyl)pyridin-2-yl)ethynyl)pyrimidin-4-yl)amino)ethyl)-5-chloro-3-phenylquinazolin-4(3H)-one], the half-maximal inhibitory concentration (IC50) against PI3Kα (bound given in uM) was over 1 µM; at PI3Kδ, under 100 nM; against PI3Kβ (bound given in nM), under 0.1 µM; on PI3Kγ (bound given in nM), under 0.1 µM.
`COc1cccc(-n2c([C@H](C)Nc3ncnc(N)c3C#Cc3ncccc3F)nc3cccc(Cl)c3c2=O)c1C` [81-1a]: the 50% inhibitory concentration (IC50) was over 1 µM against PI3Kα (bound given in uM), under 100 nM on PI3Kδ, over 1 µM against PI3Kβ (bound given in uM) and over 1 µM on PI3Kγ (bound given in uM).
For the compound `C[C@H](Nc1ncnc(N)c1C#Cc1ncccn1)c1nc2cccc(Cl)c2c(=O)n1-c1cccnc1` [Compound 117a, (S)-2-(1-((6-amino-5-(pyrimidin-2-ylethynyl)pyrimidin-4-yl)amino)ethyl)-5-chloro-3-(pyridin-3-yl)quinazolin-4(3H)-one], the half-inhibitory concentration (IC50) at PI3Kα (bound given in uM) is over 1 µM; against PI3Kδ, under 100 nM; against PI3Kβ (bound given in uM) it was over 1 µM; against PI3Kγ (bound given in uM) it was over 1 µM.
On to `C[C@H](Nc1ncnc(N)c1C#Cc1ncc(F)cc1F)c1nc2cccc(Cl)c2c(=O)n1-c1ccccc1` [Compound 82a, (S)-2-(1-((6-amino-5-((3,5-difluoropyridin-2-yl)ethynyl)pyrimidin-4-yl)amino)ethyl)-5-chloro-3-phenylquinazolin-4(3H)-one], for which the 50% inhibitory concentration (IC50) against PI3Kα (bound given in uM) is over 1 µM; against PI3Kδ, under 100 nM; against PI3Kβ (bound given in uM), over 1 µM; against PI3Kγ (bound given in uM), over 1 µM.
Consider `Cc1cccc2nc([C@H](C)Nc3ncnc(N)c3C#Cc3ncccn3)n(-c3cc(F)cc(F)c3)c(=O)c12` [Compound 105a, (S)-2-(1-((6-amino-5-(pyrimidin-2-ylethynyl)pyrimidin-4-yl)amino)ethyl)-3-(3,5-difluorophenyl)-5-methylquinazolin-4(3H)-one], for which the IC50 is over 1 µM against PI3Kα (bound given in uM), under 100 nM at PI3Kδ, over 1 µM against PI3Kβ (bound given in uM) and over 1 µM against PI3Kγ (bound given in uM).
`C[C@H](Nc1ncnc(N)c1C#Cc1cnccn1)c1nc2cccc(Cl)c2c(=O)n1N1CCCCCC1` [Compound 126a, (S)-2-(1-((6-amino-5-(pyrazin-2-ylethynyl)pyrimidin-4-yl)amino)ethyl)-3-(azepan-1-yl)-5-chloroquinazolin-4(3H)-one]: the 50% inhibitory concentration (IC50) is over 1 µM at PI3Kα (bound given in uM), under 100 nM at PI3Kδ, over 1 µM on PI3Kβ (bound given in uM) and over 1 µM at PI3Kγ (bound given in uM).
For the compound `C[C@H](Nc1ncnc(N)c1C#Cc1cnc(N)nc1)c1nc2cccc(Cl)c2c(=O)n1-c1ccccc1` [Compound 33a, (S)-2-(1-(6-amino-5-((2-aminopyrimidin-5-yl)ethynyl)pyrimidin-4-ylamino)ethyl)-5-chloro-3-phenylquinazolin-4(3H)-one], the half-inhibitory concentration (IC50) at PI3Kα (bound given in nM) is under 0.1 µM; against PI3Kδ, under 100 nM; against PI3Kβ (bound given in nM), under 0.1 µM; against PI3Kγ (bound given in nM) it was under 0.1 µM.

(Values after patent US9266878B2, “Phosphatidylinositol 3-kinase inhibitors” (Gilead Calistoga LLC, priority 2012, dated 2016).)
